According to patent US20250051338A1, “TYK2 DEGRADERS AND USES THEREOF” (Kymera Therapeutics, Inc., priority 2021, published 2025):

Key:
Format in all cases: cell-based
TYK2 [1] = target: T1, TYK2 (Homo sapiens, UniProt P29597); assay: TYK2 degradation MSD assay in human PBMC cells; parameters: endogenous in cells; host or cells: human PBMC; conditions: 4 to 24 hours incubation, read-out: TYK2 MSD DC50 rating in human PBMC
Protocol: (§1) Example 3. TYK2 Degradation MSD Assay in EBV-B, OCI-LY10, and Human PBMC Cells
(§2) Degradation of TYK2 in cells was quantitatively measured using Meso Scale Discovery (MSD) technology. EBV-B, OCI-LY10 or human PBMC cells were seeded in 96-well plates with a density of 0.4 million cells per well in 100 μl fresh media. Compounds were then added to the assay plates with a final top concentration of 1 to 10 μM in a 1:3 dilution series with total of 9 doses. The assay plates were then incubated for 4 to 24 hours at 37° C. under 5% CO2. The assay plates were then centrifuged for 5 minutes, and the cell pellets were treated with 100 μl/well RIPA lysis buffer (Boston Bioproducts, BP-115D) with protease and phosphatase inhibitors (Roche, 05892791001 and 04906837001). To prepare MSD assay plates (MSD, L15XA), the plates were coated with the capture antibody (Santa Cruz Biotechnology, SC-5271) in PBS, at 40 μl/well. The plates were then incubated overnight at 4° C., washed 3 times with 150 μl/well TBST buffer (Cell Signaling Technology, 9997S) and blocked with 150 μl/well blocking buffer (MSD, R93BA-4). Cell lysates were then added to MSD assay plates and the plates were incubated at room temperature for 1 hour. The plates were then washed 3 times with 150 μl/well TBST buffer and 25 μl/well primary detection antibody (Cell Signaling Technology, #9312). The assay plates were then incubated at room temperature for 1 hour, washed 3 times with 150 μl/well TBST buffer, and 25 μl/well secondary detection antibody, SULFO-TAG anti-rabbit antibody (MSD, R32AB-1) were added. The assay plates were then incubated at room temperature for 1 hour, washed 3 times with 150 μl/well TBST buffer, and 150 μl/well MSD reading buffer (MSD, R92TC-2) were added. The plates were then analyzed by an MSD reader. The data was analyzed by GraphPad Prism and the dose dependent TYK2 degradation was fit using the four-parameter inhibitor vs. response nonlinear regression. The DC50 data were measured and categorized into different levels in Table H. The compound with DC50 less than or equal to 1 nM is marked as A, with DC50 more than 1 nM and less than or equal to 10 nM is marked as B, with DC50 more than 10 nM and less than or equal to 100 nM is marked as C, and with DC50 more than 100 nM or not available is marked as D.

TYK2 [2] = target: T1, TYK2; assay: TYK2 degradation MSD assay in EBV-B cells; parameters: endogenous in cells; host or cells: EBV-B cells
Protocol: as §1, §2

TYK2 [3] = target: T1, TYK2; assay: TYK2 degradation MSD assay in OCI-LY10 cells; parameters: endogenous in cells; host or cells: EBV-B cells; conditions: 4 to 24 hours incubation, read-out: TYK2 MSD DC50 rating in OCI-LY10
Protocol: as §1, §2

[4] = 4 to 24 hours incubation, read-out: TYK2 MSD DC50 rating in EBV-B

T1 sequence (P29597 whole entry): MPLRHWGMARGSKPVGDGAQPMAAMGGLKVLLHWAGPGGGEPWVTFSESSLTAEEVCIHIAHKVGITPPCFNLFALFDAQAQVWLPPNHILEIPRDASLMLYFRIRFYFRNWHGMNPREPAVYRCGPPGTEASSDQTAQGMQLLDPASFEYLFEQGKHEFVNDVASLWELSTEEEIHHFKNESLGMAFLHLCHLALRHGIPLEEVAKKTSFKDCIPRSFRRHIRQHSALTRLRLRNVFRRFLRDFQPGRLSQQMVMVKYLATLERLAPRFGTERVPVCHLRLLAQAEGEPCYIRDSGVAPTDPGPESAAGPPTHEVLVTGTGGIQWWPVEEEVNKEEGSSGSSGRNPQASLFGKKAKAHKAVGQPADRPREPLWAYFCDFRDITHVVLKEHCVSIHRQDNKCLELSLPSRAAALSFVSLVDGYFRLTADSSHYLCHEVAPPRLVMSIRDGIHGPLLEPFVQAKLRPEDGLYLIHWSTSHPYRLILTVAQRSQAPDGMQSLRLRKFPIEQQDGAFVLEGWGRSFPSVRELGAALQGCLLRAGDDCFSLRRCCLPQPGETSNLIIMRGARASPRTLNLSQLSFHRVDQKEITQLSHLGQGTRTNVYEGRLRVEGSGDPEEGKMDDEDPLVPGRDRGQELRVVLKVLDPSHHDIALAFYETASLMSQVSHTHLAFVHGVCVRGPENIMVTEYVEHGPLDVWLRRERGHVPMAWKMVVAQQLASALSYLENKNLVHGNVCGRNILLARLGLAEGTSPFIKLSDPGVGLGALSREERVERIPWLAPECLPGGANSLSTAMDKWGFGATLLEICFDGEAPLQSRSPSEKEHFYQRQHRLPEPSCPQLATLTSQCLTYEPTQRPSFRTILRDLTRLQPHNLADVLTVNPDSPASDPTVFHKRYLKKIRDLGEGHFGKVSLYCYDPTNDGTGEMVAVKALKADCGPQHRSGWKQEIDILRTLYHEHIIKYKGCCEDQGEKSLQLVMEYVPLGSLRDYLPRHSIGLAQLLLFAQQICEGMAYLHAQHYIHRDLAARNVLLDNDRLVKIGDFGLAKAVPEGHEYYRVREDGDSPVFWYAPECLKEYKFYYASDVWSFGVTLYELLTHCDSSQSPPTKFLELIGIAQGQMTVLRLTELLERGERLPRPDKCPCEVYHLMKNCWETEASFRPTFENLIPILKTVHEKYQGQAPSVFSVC

Structure (SMILES) | DC50 (TYK2 [1]) | DC50 (TYK2 [2]; [4]) | DC50 (TYK2 [3]) | DC50 (TYK2 [2]; read-out: TYK2 MSD DC50 rating in EBV-B, 4 to 24 hours incubation)
CNc1cc(Nc2cccc(-c3ccc(CN4CC5(CCN(C(=O)c6ccc(Cl)c(N7CCC(=O)NC7=O)c6)CC5)C4)cn3)c2)nn2c(C(=O)N[C@@H]3C[C@@H]3F)cnc12 [Example K506] | > 0.1 µM | 0.01 to 0.1 µM | 0.001 to 0.01 µM | –
CCNC(=O)c1cnc(Nc2ccc(C(=O)NCCCCc3cccc4c3n(C)c(=O)n4C3CCC(=O)NC3=O)cn2)cc1Nc1cccc(-c2ncc(F)cn2)c1OC (stereo not drawn) [Example K182] | 0.001 to 0.01 µM | 0.01 to 0.1 µM | > 0.1 µM | –
CNc1cc(Nc2cccc(-c3ccc(CN4CCN(c5ccc(-c6ccc7c(c6)n(C)c(=O)n7C6CCC(=O)NC6=O)cc5)CC4)cn3)c2OC)nn2c(C(=O)N[C@@H]3C[C@@H]3F)cnc12 (stereo partly drawn) [Example K479] | > 0.1 µM | < 0.001 µM | < 0.001 µM | –
CC#Cc1nn(-c2cccc(F)c2OC)c2cc(Nc3ccc(CN(C)C4CCN(c5cccc6c5n(C)c(=O)n6C5CCC(=O)NC5=O)CC4)cn3)ncc12 (stereo not drawn) [Example K558] | > 0.1 µM | > 0.1 µM | > 0.1 µM | –
CNc1cc(Nc2cccn(-c3ccc(C(=O)N4CC(N5CCN(CCc6ccc7c(c6)n(C)c(=O)n7C6CCC(=O)NC6=O)CC5)C4)cn3)c2=O)nn2c(C(=O)N[C@@H]3C[C@@H]3F)cnc12 (stereo partly drawn) [Example K429] | > 0.1 µM | 0.001 to 0.01 µM | < 0.001 µM | –
CNc1cc(Nc2cccc(-c3ccc(CN4CCN(c5ccc6c(c5)n(C)c(=O)n6C5CCC(=O)NC5=O)CC4)cn3)c2)nn2c(C(=O)N[C@@H]3C[C@@H]3F)cnc12 (stereo partly drawn) [Example K523] | > 0.1 µM | > 0.1 µM | 0.001 to 0.01 µM | –
Cn1c(=O)n(C2CCC(=O)NC2=O)c2ccc(-c3ccc(N4CCN(Cc5ccc(-c6cccc(Nc7ccc8ncc(C(=O)NC9CC9)n8n7)c6)nc5)CC4)cc3)cc21 (stereo not drawn) [Example K415] | > 0.1 µM | 0.001 to 0.01 µM | > 0.1 µM | –
CNC(=O)c1cnc(Nc2ccc(CN3CC(N(C)c4cccc5c4n(C)c(=O)n5C4CCC(=O)NC4=O)C3)cn2)cc1Nc1cccc(-c2ncc(F)cn2)c1OC (stereo not drawn) [Example K161] | > 0.1 µM | 0.001 to 0.01 µM | > 0.1 µM | –
CNc1cc(Nc2cccc(C(=O)NCCCCCCCCc3ccc4c(c3)n(C)c(=O)n4C3CCC(=O)NC3=O)c2)nn2c(C(=O)N[C@@H]3C[C@@H]3F)cnc12 (stereo partly drawn) [Example K251] | < 0.001 µM | > 0.1 µM | > 0.1 µM | –
CNc1cc(-c2ccc(-c3ccc(CN4CCN(c5ccc(-c6ccc7c(c6)n(C)c(=O)n7C6CCC(=O)NC6=O)cc5)CC4)cn3)cc2)nn2c(C(=O)N[C@@H]3C[C@@H]3F)cnc12 (stereo partly drawn) [Example K529] | > 0.1 µM | > 0.1 µM | 0.001 to 0.01 µM | –
CNc1cc(N2CCc3c(N4CCN(C5CC6(CCN(c7ccc8c(c7)n(C)c(=O)n8C7CCC(=O)NC7=O)CC6)C5)CC4)cccc32)nn2c(C(=O)N[C@@H]3C[C@@H]3F)cnc12 (stereo partly drawn) [Example K646] | > 0.1 µM | > 0.1 µM | < 0.001 µM | –
CNc1cc(Oc2ccn(C3CCN(CC4CCN(c5ccc(-c6ccc7c(c6)n(C)c(=O)n7C6CCC(=O)NC6=O)cc5)CC4)CC3)n2)nn2c(C(=O)N[C@@H]3C[C@@H]3F)cnc12 (stereo partly drawn) [Example K549] | > 0.1 µM | > 0.1 µM | > 0.1 µM | –
CNc1cc(Nc2cccc(N3CCC(CN4CCN(c5cccc6c(C7CCC(=O)NC7=O)cncc56)CC4)CC3)c2)nn2c(C(=O)N[C@@H]3C[C@@H]3F)cnc12 (stereo partly drawn) [Example K503] | > 0.1 µM | > 0.1 µM | > 0.1 µM | –
CNc1cc(Nc2cccn(-c3ccc(C(=O)NCCCCc4ccc5c(c4)n(C)c(=O)n5C4CCC(=O)NC4=O)cn3)c2=O)nn2c(C(=O)NC3CC3)cnc12 (stereo not drawn) [Example K322] | > 0.1 µM | > 0.1 µM | > 0.1 µM | –
Cn1c(=O)n(C2CCC(=O)NC2=O)c2ccc(CCCCNC(=O)c3cccc(Nc4ccc5ncc(C(=O)N[C@@H]6C[C@@H]6F)n5n4)c3)cc21 (stereo partly drawn) [Example K328] | > 0.1 µM | – | > 0.1 µM | > 0.1 µM
